In patent US20240381872A1, “SUBSTITUTED 2,3-DIHYDRO[1,3]THIAZOLO[4,5-B]PYRIDINES, SALTS THEREOF AND THEIR USE AS HERBICIDALLY ACTIVE SUBSTANCES” (BAYER AKTIENGESELLSCHAFT, priority 2021, published 2024):

How the values were obtained:
Format in all cases: in vivo
[1] = system: Alopecurus myosuroides (ALOMY); assay: Herbicidal pre-emergence action, section C (Table C2); conditions: Alopecurus myosuroides, pre-emergence, 504 h; application rate 320 g/ha; visual grading after ca. 3 weeks vs untreated controls; read-out: pre-emergence activity against ALOMY in %
From the text: (§1) Seeds of mono- and dicotyledonous weed plants and crop plants were sown, in plastic or organic planting pots, in sandy loam and covered with soil. The compounds according to the invention, formulated in the form of wettable powders (WP) or as emulsifiable concentrates (EC), were applied to the surface of the covering soil as aqueous suspension or emulsion, with the addition of 0.5% of an additive, at an application rate of 600 l of water/ha (converted). Following treatment, the pots were placed in a greenhouse and kept under optimum growth conditions for the test plants. The visual grading of the damage to the test plants was carried out after ca. 3 weeks in comparison to untreated controls (herbicidal effect in percent (%): 100% effect=plants have died off, 0% effect=as control plants).

[2] = system: Echinochloa crus-galli (ECHCG); assay: Herbicidal pre-emergence action, section C (Table C3); conditions: application rate 320 g/ha, visual grading after ca. 3 weeks vs untreated controls
From the text: as §1

Lolium rigidum (LOLRI) [3] = assay: Herbicidal pre-emergence action, section C (Table C5); conditions: Lolium rigidum, pre-emergence, 504 h; application rate 320 g/ha; visual grading after ca. 3 weeks; read-out: pre-emergence activity against LOLRI in %
From the text: as §1

[4] = system: Polygonum convolvulus (POLCO); assay: Herbicidal pre-emergence action, section C (Table C7); conditions: Fallopia convolvulus, pre-emergence, 504 h; application rate 320 g/ha; visual grading after ca. 3 weeks; read-out: pre-emergence activity against POLCO in %
From the text: as §1

Setaria viridis (SETVI) [5] = assay: Herbicidal pre-emergence action, section C (Table C8); conditions: application rate 320 g/ha, visual grading after ca. 3 weeks
From the text: as §1

Zea mays (ZEAMX) [6] = assay: Pre-emergence effects on crop plants, section D (Table D1); conditions: visual grading after ca. 3 weeks
From the text: (§2) Seeds of mono- and dicotyledonous weed plants and crop plants were sown, in plastic or organic planting pots, in sandy loam and covered with soil. The compounds according to the invention, formulated in the form of wettable powders (WP) or as emulsifiable concentrates (EC), were applied to the surface of the covering soil as aqueous suspension or emulsion, with the addition of 0.5% of an additive, at an application rate of 600 l of water/ha (converted).
(§3) Following treatment, the pots were placed in a greenhouse and kept under optimum growth conditions for the test plants. The visual grading of the damage to the test plants was carried out after ca. 3 weeks in comparison to untreated controls (herbicidal effect in percent (%): 100% effect=plants have died off, 0% effect=as control plants).
(§4) Tables D1 to D5 below show the effects of various compounds of the general formula (I) according to Table 1 on various crop plants and an application rate corresponding to 320 g/ha or below obtained by the experimental procedure mentioned above in Biological Examples, Section C.

[7] = system: Triticum aestivum (TRZAS); assay: Pre-emergence effects on crop plants, section D (Table D2); conditions: visual grading after ca. 3 weeks
Outline: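 Formulated compound (wettable powder or emulsifiable concentrate) was applied pre-emergence to the soil surface at 320 g/ha or lower. Greenhouse-grown plants were rated visually for percent damage after ca. 3 weeks.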

Oryza sativa (ORYZA) [8] = assay: Pre-emergence effects on crop plants, section D (Table D3); conditions: visual grading after ca. 3 weeks
From the text: as §2, §3, §4

Glycine max (GLXMA) [9] = assay: Pre-emergence effects on crop plants, section D (Table D4); conditions: application rate 320 g/ha; visual grading after ca. 3 weeks
From the text: as §2, §3, §4

Brassica napus (BRSNW) [10] = assay: Pre-emergence effects on crop plants, section D (Table D5); conditions: application rate 80 g/ha; visual grading after ca. 3 weeks
From the text: as §2, §3, §4

[11] = system: Alopecurus myosuroides (ALOMY); assay: Herbicidal post-emergence action, section E (Table E2); conditions: Alopecurus myosuroides, post-emergence, 504 h; application rate 320 g/ha; assessed visually after ca. 3 weeks; read-out: post-emergence activity against ALOMY in %
From the text: (§5) Seeds of mono- and dicotyledonous weed plants and crop plants were sown, in plastic or organic planting pots, in sandy loam, covered with soil and grown in a greenhouse under controlled growth conditions. 2 to 3 weeks after sowing, the test plants were sprayed in the single-leaf stage. The compounds according to the invention, formulated in form of wettable powders (WP) or as emulsifiable concentrates (EC), were sprayed onto the green plant parts as aqueous suspension or emulsion, with the addition of 0.5% of an additive, at an application rate of 600 l of water/ha (converted). The test plants were placed in the greenhouse for ca. 3 weeks under optimum growth conditions, and then the effect of the preparations was assessed visually in comparison with untreated controls (herbicidal effect in percent (%): 100% effect=plants have died off, 0% effect=as control plants).

[12] = system: Polygonum convolvulus (POLCO); assay: Herbicidal post-emergence action, section E (Table E7); conditions: Fallopia convolvulus, 504 h, application rate 320 g/ha, visual assessment ca. 3 weeks after spraying, read-out: post-emergence activity against POLCO in %
From the text: as §5

Veronica persica (VERPE) = assay: Herbicidal post-emergence action, section E (Table E9); conditions: Veronica persica, 504 h, application rate 320 g/ha, visual assessment ca. 3 weeks after spraying, read-out: post-emergence activity against VERPE in %
From the text: as §5

Zea mays (ZEAMX) [13] = assay: Post-emergence effects on crop plants, section F (Table F1); conditions: application rate 320 g/ha
Outline: (§6)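 Post-emergence greenhouse test: crops grown 2 to 3 weeks in sandy loam, sprayed at 320 g/ha or less in 600 l water/ha with 0.5% additive. Injury rated visually as percent relative to controls roughly three weeks later.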

[14] = system: Triticum aestivum (TRZAS); assay: Post-emergence effects on crop plants, section F (Table F2); conditions: application rate 320 g/ha
Outline: as §6

Oryza sativa (ORYZA) [15] = assay: Post-emergence effects on crop plants, section F (Table F3)
From the text: as §5, with “plants). Tables F1 to F4 below show the effects of selected compounds of the general formula (I) according to Table 1 on various crop plants and an application rate corresponding to 320 g/ha or below obtained by the experimental procedure mentioned above.” for “plants).”

Glycine max (GLXMA) [16] = assay: Post-emergence effects on crop plants, section F (Table F4)
Outline: as §6

Brassica napus (BRSNW) [17] = assay: Post-emergence effects on crop plants, section F (Table F5); conditions: application rate 80 g/ha
From the text: as §5, with “plants). Tables F1 to F4 below show the effects of selected compounds of the general formula (I) according to Table 1 on various crop plants and an application rate corresponding to 320 g/ha or below obtained by the experimental procedure mentioned above.” for “plants).”

Kochia scoparia (KCHSC) [18] = assay: Herbicidal pre-emergence action, section A (Table A4); conditions: application rate 1280 g/ha; visual grading after ca. 3 weeks vs untreated controls
Outline: (§7)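 Pre-emergence soil-surface application: WP or EC formulations in water plus 0.5% additive, sprayed at 600 l/ha onto soil covering seeds sown in sandy loam. Visual percent damage rated at about 3 weeks against untreated pots, 100% meaning plants died off and 0% meaning like controls.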

Lolium rigidum (LOLRI) [19] = assay: Herbicidal pre-emergence action, section A (Table A5); conditions: application rate 1280 g/ha; visual grading after ca. 3 weeks vs untreated controls
Outline: as §7

Poa annua (POAAN) = assay: Herbicidal pre-emergence action, section A (Table A7); conditions: application rate 320 g/ha; visual grading after ca. 3 weeks vs untreated controls
Outline: as §7

Setaria viridis (SETVI) [20] = assay: Herbicidal pre-emergence action, section A (Table A8); conditions: application rate 320 g/ha
Outline: as §7

Stellaria media (STEME) = assay: Herbicidal pre-emergence action, section A (Table A9); conditions: application rate 1280 g/ha
Outline: as §7

[21] = system: Amaranthus retroflexus (AMARE); assay: Herbicidal pre-emergence action, section A (Table A11); conditions: application rate 1280 g/ha
Outline: as §7

[22] = system: Digitaria sanguinalis (DIGSA); assay: Herbicidal pre-emergence action, section A (Table A12); conditions: application rate 1280 g/ha
Outline: as §7

Kochia scoparia (KCHSC) [23] = assay: Herbicidal post-emergence action, section B (Table B4); conditions: application rate 1280 g/ha; visual rating about 3 weeks after treatment vs untreated controls
Outline: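 Post-emergence greenhouse test. One-leaf stage; WP or EC plus 0.5% additive; 600 liters per hectare water volume; visual % rating at ~3 weeks relative to untreated plants.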

[24] = system: Amaranthus retroflexus (AMARE); assay: Herbicidal pre-emergence action, section C (Table C11); conditions: application rate 80 g/ha; visual grading after ca. 3 weeks
From the text: as §1

[25] = system: Digitaria sanguinalis (DIGSA); assay: Herbicidal pre-emergence action, section C (Table C12); conditions: application rate 320 g/ha; visual grading after ca. 3 weeks
From the text: as §1

Cc1cc2c(nc1-c1ccccc1F)N(C(=O)C1CC1)CS2 [Example I-018, cyclopropyl[5-(2-fluorophenyl)-6-methyl[1,3]thiazolo[4,5-b]pyridin-3(2H)-yl]methanone]
100%: pest or weed control at 320 g/ha [1] | pest or weed control at 320 g/ha ([2]; Echinochloa crus-galli, pre-emergence, 504 h, read-out: pre-emergence activity against ECHCG in %) | pest or weed control at 320 g/ha (Lolium rigidum (LOLRI) [3]) | pest or weed control at 320 g/ha (Setaria viridis (SETVI) [5]; Setaria viridis, pre-emergence, 504 h, read-out: pre-emergence activity against SETVI in %)
90%: pest or weed control at 320 g/ha [4] | pest or weed control at 320 g/ha [11] | pest or weed control at 320 g/ha (Veronica persica (VERPE))
20%: pre-emergence activity against ZEAMX in % (crop plant damage) (Zea mays (ZEAMX) [6]; application rate 80 g/ha) | percent crop plant damage (phytotoxicity) on Zea mays, post-emergence at 320 g/ha (Zea mays (ZEAMX) [13]; Zea mays, 504 h, read-out: post-emergence activity against ZEAMX in %)
80%: pest or weed control at 320 g/ha [12]
0%: percent crop plant damage at 80 g/ha (Oryza sativa (ORYZA) [15]; Oryza sativa, 504 h, application rate 80 g/ha, read-out: post-emergence activity against ORYZA in %) | percent crop plant damage at 320 g/ha (Glycine max (GLXMA) [16]; Glycine max, 504 h, application rate 320 g/ha, read-out: post-emergence activity against GLXMA in %)
10%: pre-emergence activity against TRZAS in % (crop plant damage) ([7]; application rate 80 g/ha) | pre-emergence activity against ORYZA in % (crop plant damage) (Oryza sativa (ORYZA) [8]; application rate 80 g/ha) | pre-emergence activity against GLXMA in % (crop plant damage) (Glycine max (GLXMA) [9]) | pre-emergence activity against BRSNW in % (crop plant damage) (Brassica napus (BRSNW) [10]) | percent crop plant damage (wheat, post-emergence) at 320 g/ha ([14]; Triticum aestivum, 504 h, read-out: post-emergence activity against TRZAS in %) | crop plant damage (phytotoxicity) in % at 80 g/ha (Brassica napus (BRSNW) [17]; Brassica napus, 504 h, read-out: post-emergence activity against BRSNW in %)

COc1ccccc1-c1nc2c(cc1Br)SCN2B(N)N [Example I-087]
10%: pre-emergence activity against ZEAMX in % (crop plant damage) (Zea mays (ZEAMX) [6]; application rate 320 g/ha) | pre-emergence activity against TRZAS in % (crop plant damage) ([7]; application rate 320 g/ha)
0%: post-emergence activity against ZEAMX in % (Zea mays (ZEAMX) [13]; crop plant damage) | post-emergence activity against TRZAS in % ([14]; crop plant damage) | post-emergence activity against ORYZA in % (Oryza sativa (ORYZA) [15]; crop plant damage, application rate 320 g/ha) | post-emergence activity against GLXMA in % (Glycine max (GLXMA) [16]; crop plant damage, application rate 80 g/ha) | post-emergence activity against BRSNW in % (Brassica napus (BRSNW) [17]; crop plant damage)
20%: pre-emergence activity against ORYZA in % (crop plant damage) (Oryza sativa (ORYZA) [8]; application rate 320 g/ha) | pre-emergence activity against GLXMA in % (crop plant damage) (Glycine max (GLXMA) [9]) | pre-emergence activity against BRSNW in % (crop plant damage) (Brassica napus (BRSNW) [10])
90%: pre-emergence activity against KCHSC in % (Kochia scoparia (KCHSC) [18]) | pre-emergence activity against STEME in % (Stellaria media (STEME)) | pre-emergence activity against AMARE in % [21] | post-emergence activity against KCHSC in % (Kochia scoparia (KCHSC) [23]) | pre-emergence activity against ECHCG in % [2] | pre-emergence activity against AMARE in % [24] | pre-emergence activity against DIGSA in % [25]
100%: pre-emergence activity against LOLRI in % (Lolium rigidum (LOLRI) [19]) | pre-emergence activity against POAAN in % (Poa annua (POAAN)) | pre-emergence activity against SETVI in % (Setaria viridis (SETVI) [20]) | pre-emergence activity against DIGSA in % [22] | pre-emergence activity against SETVI in % (Setaria viridis (SETVI) [5])
